Source: paper PMC8523698, “Preclinical characterization of an intravenous coronavirus 3CL protease inhibitor for the potential treatment of COVID19” (Nature Communications, 2021)
In brackets after ≈: the same amount, converted by molar mass. Several values for one entry are separate records, joined by “and”; a condition that tells them apart may be missing. Equal values may be shown once. Read-outs that look alike come from different tables or passages of the source.

How the values were obtained:
[1] = Plasma protein binding by equilibrium dialysis; conditions: monkey plasma, 3.44 uM; for fraction unbound at 6 h, 3.44 uM: plasma
[2] = In vitro micronucleus formation; type: cell-based
CYP2D6 = CYP2D6 (Homo sapiens, UniProt P10635); test: Reversible CYP inhibition in human liver microsomes
[3] = Rat pharmacokinetic study; conditions: for Vd: Vdss
CYP1A2 = target: T1, CYP1A2 (Homo sapiens, UniProt P05177); test: Reversible CYP inhibition in human liver microsomes; conditions: for activity at 0.01 µM / activity at 0.158 µM / activity at 0.398 µM / activity at 1 µM / activity at 15.8 µM / activity at 39.8 µM / activity at 100 µM: human, microsomes, pH 7.4, Percent of Control Activity
T1 sequence (P05177 1-516): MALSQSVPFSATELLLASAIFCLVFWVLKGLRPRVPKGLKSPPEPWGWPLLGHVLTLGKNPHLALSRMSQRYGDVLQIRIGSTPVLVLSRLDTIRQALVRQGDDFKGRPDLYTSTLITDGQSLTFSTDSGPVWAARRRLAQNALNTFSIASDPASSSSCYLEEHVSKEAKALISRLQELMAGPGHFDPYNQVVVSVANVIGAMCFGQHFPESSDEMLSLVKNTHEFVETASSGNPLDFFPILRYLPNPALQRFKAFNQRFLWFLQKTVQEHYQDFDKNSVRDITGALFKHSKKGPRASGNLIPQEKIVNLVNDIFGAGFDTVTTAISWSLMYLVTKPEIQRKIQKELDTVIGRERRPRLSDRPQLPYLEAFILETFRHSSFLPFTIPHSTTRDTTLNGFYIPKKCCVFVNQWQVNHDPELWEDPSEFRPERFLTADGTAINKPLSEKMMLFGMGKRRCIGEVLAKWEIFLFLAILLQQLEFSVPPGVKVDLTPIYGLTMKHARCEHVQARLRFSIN

MDR1/P-gp = MDR1/P-gp (Homo sapiens, UniProt P08183); test: Transporter inhibition using membrane vesicles; conditions: for % PGP Uptake Activity: uptake of N-methyl quinidine by MDR1, single replicates
[4] = rat, PF-07304814 prodrug dosed […] intravenous, individual rats, […]

MDR1/P-gp, sequence (P08183 whole entry): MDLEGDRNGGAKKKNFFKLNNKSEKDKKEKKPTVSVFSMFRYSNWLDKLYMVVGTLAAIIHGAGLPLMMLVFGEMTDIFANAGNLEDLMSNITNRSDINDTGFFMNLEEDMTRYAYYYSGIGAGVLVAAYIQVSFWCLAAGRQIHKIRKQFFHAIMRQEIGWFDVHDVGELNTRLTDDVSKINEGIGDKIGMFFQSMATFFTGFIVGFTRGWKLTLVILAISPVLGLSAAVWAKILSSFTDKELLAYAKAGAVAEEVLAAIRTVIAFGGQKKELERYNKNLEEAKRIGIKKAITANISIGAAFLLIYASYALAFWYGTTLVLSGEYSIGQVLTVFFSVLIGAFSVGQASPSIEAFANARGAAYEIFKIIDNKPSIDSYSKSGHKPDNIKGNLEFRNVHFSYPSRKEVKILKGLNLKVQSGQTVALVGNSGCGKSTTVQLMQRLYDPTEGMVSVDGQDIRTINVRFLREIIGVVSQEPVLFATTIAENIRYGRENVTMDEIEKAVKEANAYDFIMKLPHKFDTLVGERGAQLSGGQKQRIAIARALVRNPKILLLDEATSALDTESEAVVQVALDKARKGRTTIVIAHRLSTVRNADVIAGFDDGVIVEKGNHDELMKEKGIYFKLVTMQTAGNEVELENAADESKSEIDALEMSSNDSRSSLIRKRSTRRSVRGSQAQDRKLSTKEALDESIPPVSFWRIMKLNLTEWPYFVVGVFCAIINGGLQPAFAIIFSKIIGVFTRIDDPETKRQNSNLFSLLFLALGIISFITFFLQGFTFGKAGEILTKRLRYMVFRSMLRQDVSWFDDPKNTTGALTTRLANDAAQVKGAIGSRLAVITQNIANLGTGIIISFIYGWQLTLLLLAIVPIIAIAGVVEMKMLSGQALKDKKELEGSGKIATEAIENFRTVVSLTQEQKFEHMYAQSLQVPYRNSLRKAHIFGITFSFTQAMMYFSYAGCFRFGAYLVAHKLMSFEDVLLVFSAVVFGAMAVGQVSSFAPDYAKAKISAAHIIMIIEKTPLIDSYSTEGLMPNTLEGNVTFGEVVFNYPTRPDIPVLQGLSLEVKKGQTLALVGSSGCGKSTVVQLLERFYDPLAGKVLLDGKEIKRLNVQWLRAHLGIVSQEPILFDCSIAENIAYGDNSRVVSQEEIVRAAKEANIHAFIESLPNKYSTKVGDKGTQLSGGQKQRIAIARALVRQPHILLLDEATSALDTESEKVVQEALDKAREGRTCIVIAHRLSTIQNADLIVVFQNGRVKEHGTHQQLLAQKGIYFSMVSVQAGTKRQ
CYP2D6, sequence (P10635 whole entry): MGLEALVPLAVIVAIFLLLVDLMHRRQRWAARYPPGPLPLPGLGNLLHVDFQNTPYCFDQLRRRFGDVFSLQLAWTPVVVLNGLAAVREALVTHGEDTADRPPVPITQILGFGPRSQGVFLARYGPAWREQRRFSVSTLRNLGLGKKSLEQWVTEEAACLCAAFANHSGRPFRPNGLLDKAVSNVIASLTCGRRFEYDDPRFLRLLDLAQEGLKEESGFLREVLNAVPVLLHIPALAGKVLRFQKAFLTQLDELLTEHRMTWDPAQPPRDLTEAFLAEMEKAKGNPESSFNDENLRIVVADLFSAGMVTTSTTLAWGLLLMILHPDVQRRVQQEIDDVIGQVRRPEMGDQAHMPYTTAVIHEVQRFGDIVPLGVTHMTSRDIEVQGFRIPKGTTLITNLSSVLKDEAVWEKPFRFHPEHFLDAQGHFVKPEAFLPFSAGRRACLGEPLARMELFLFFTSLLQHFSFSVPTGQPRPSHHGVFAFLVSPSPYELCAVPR

## COc1cccc2[nH]c(C(=O)N[C@@H](CC(C)C)C(=O)N[C@@H](C[C@@H]3CCNC3=O)C(=O)COP(=O)(O)O)cc12 [PF-07304814]
Solubility measurement; deionized water and pH buffers
  solubility at 48 h: > 200 mg/mL
Solubility measurement; deionized water and pH buffers (aqueous)
  solubility at 48 h: 200 mg/mL (≈ 362 mM)
[1]; both, Cynomologous, cynomolgus monkey, pH 7.4, Individual fraction unbound, Cynomologous, male and female, Day 1
  fraction unbound at 6 h, 3.44 uM: 0.388
[1]; both, Cynomologous, cynomolgus monkey, pH 7.4, Individual fraction unbound, Cynomologous, male and female, Day 2
  fraction unbound at 6 h, 3.44 uM: 0.356
[1]; both, Cynomologous, cynomolgus monkey, pH 7.4, Individual fraction unbound, Cynomologous, male and female, Day 3
  fraction unbound at 6 h, 3.44 uM: 0.442
[1]; Cynomologous, male and female, Day 1
  Individual fraction unbound: 0.366 and 0.39 and 0.393
[1]; Cynomologous, male and female, Day 2
  Individual fraction unbound: 0.318 and 0.315 and 0.319
[1]; Cynomologous, male and female, Day 3
  Individual fraction unbound: 0.37 and 0.354 and 0.347
[1]; monkey, pH 7.4, fraction unbound Geomean, n=12
  fraction unbound at 6 h, 3.44 uM: 0.361
[2]
  micronuclei formation: did not induce micronuclei formation
CYP2D6
  IC50: > 100 µM
CYP2D6; CYP 2D6, 0.01 µM, 30-Minute Preincubation, 0.01 µM
  Percent of Control Activity: 97.3% and 99.6%
CYP2D6; CYP 2D6, 0.01 µM, Zero-Minute Preincubation, 0.01 µM
  Percent of Control Activity: 101.0% and 93.7%
CYP2D6; CYP 2D6, 0.158 µM, 30-Minute Preincubation, 0.158 µM
  Percent of Control Activity: 96.0%
CYP2D6; CYP 2D6, 0.158 µM, Zero-Minute Preincubation, 0.158 µM
  Percent of Control Activity: 97.1% and 95.4%
CYP2D6; CYP 2D6, 0.398 µM, 30-Minute Preincubation, 0.398 µM
  Percent of Control Activity: 95.2% and 103.0%
CYP2D6; CYP 2D6, 0.398 µM, Zero-Minute Preincubation, 0.398 µM
  Percent of Control Activity: 98.0% and 97.1%
CYP2D6; CYP 2D6, 1 µM, 30-Minute Preincubation, 1 µM
  Percent of Control Activity: 95.2% and 99.6%
CYP2D6; CYP 2D6, 1 µM, Zero-Minute Preincubation, 1 µM
  Percent of Control Activity: 94.2%
CYP2D6; CYP 2D6, 15.8 µM, 30-Minute Preincubation, 15.8 µM
  Percent of Control Activity: 101.2% and 99.3%
CYP2D6; CYP 2D6, 15.8 µM, Zero-Minute Preincubation, 15.8 µM
  Percent of Control Activity: 97.0%
CYP2D6; CYP 2D6, 39.8 µM, 30-Minute Preincubation, 39.8 µM
  Percent of Control Activity: 99.9% and 102.0%
CYP2D6; CYP 2D6, 39.8 µM, Zero-Minute Preincubation, 39.8 µM
  Percent of Control Activity: 95.5% and 101.2%
CYP2D6; CYP 2D6, 100 µM, 30-Minute Preincubation, 100 µM
  Percent of Control Activity: 93.7% and 95.4%
CYP2D6; CYP 2D6, 100 µM, Zero-Minute Preincubation, 100 µM
  Percent of Control Activity: 68.1% and 92.0% and 98.1%
CYP2D6; Dextromethorphan O-demethylation, T0
  IC50: > 100 µM
CYP2D6; human, microsomes, pH 7.4, Percent of Control Activity, CYP 2D6, 0.01 µM, 30-Minute Preincubation
  activity at 0.01 µM: 101%
CYP2D6; human, microsomes, pH 7.4, Percent of Control Activity, CYP 2D6, 0.01 µM, Zero-Minute Preincubation
  activity at 0.01 µM: 99.1%
CYP2D6; human, microsomes, pH 7.4, Percent of Control Activity, CYP 2D6, 0.158 µM, 30-Minute Preincubation
  activity at 0.158 µM: 103%
CYP2D6; human, microsomes, pH 7.4, Percent of Control Activity, CYP 2D6, 0.158 µM, Zero-Minute Preincubation
  activity at 0.158 µM: 102%
CYP2D6; human, microsomes, pH 7.4, Percent of Control Activity, CYP 2D6, 0.398 µM, 30-Minute Preincubation
  activity at 0.398 µM: 103%
CYP2D6; human, microsomes, pH 7.4, Percent of Control Activity, CYP 2D6, 0.398 µM, Zero-Minute Preincubation
  activity at 0.398 µM: 101%
CYP2D6; human, microsomes, pH 7.4, Percent of Control Activity, CYP 2D6, 1 µM, 30-Minute Preincubation
  activity at 1 µM: 104%
CYP2D6; human, microsomes, pH 7.4, Percent of Control Activity, CYP 2D6, 1 µM, Zero-Minute Preincubation
  activity at 1 µM: 98.7%
CYP2D6; human, microsomes, pH 7.4, Percent of Control Activity, CYP 2D6, 15.8 µM, 30-Minute Preincubation
  activity at 15.8 µM: 102%
CYP2D6; human, microsomes, pH 7.4, Percent of Control Activity, CYP 2D6, 15.8 µM, Zero-Minute Preincubation
  activity at 15.8 µM: 106%
CYP2D6; human, microsomes, pH 7.4, Percent of Control Activity, CYP 2D6, 39.8 µM, 30-Minute Preincubation
  activity at 39.8 µM: 102%
CYP2D6; human, microsomes, pH 7.4, Percent of Control Activity, CYP 2D6, 39.8 µM, Zero-Minute Preincubation
  activity at 39.8 µM: 102%
CYP2D6; human, microsomes, pH 7.4, Percent of Control Activity, CYP 2D6, 100 µM, 30-Minute Preincubation
  activity at 100 µM: 102%
[3]; male, Wistar-Hannover, rat, plasma, iv, CL, rat IV, PF-07304814 […] (n=2, range), PF-00835231 2mg/kg (n=3, ± SD)
  clearance: 194 mL/min/kg
[3]; male, Wistar-Hannover, rat, plasma, iv, Terminal T1/2, rat IV, PF-07304814 […] (n=2, range), PF-00835231 2mg/kg (n=3, ± SD)
  half-life: 18 min
[3]; male, Wistar-Hannover, rat, plasma, iv, rat IV, PF-07304814 […] (n=2, range), PF-00835231 2mg/kg (n=3, ± SD)
  Vd: 0.58 L/kg
[3]; male, Wistar-Hannover, rat, plasma, iv, […], Clearance, Mean Data, PF-07304814 prodrug dosed […] intravenous, mean
  clearance: 194 mL/min/kg
[3]; male, Wistar-Hannover, rat, plasma, iv, […], Clearance, PF-07304814 prodrug dosed […] intravenous, individual rats
  clearance: 168 mL/min/kg
[3]; male, Wistar-Hannover, rat, plasma, iv, […], Half life, Mean Data, PF-07304814 prodrug dosed […] intravenous, mean
  half-life: 18 min
[3]; male, Wistar-Hannover, rat, plasma, iv, […], Half life, PF-07304814 prodrug dosed […] intravenous, individual rats
  half-life: 21.6 min
[3]; male, Wistar-Hannover, rat, plasma, iv, […], Mean Data, PF-07304814 prodrug dosed […] intravenous, mean
  Vd: 0.58 L/kg
[3]; male, Wistar-Hannover, rat, plasma, iv, […], PF-07304814 prodrug dosed […] intravenous, individual rats
  Vd: 0.567 L/kg
[3]; rat IV, PF-07304814 […], PF-00835231 2mg/kg
  %unchanged in urine: < 0.1%
[3]; [4]
  Half life: 13.8 min
  Vdss: 0.592 L/kg
  clearance: 220 mL/min/kg
CYP1A2
  IC50: > 100 µM
CYP1A2; CYP 1A2, 0.01 µM, 30-Minute Preincubation, 0.01 µM
  Percent of Control Activity: 103.6% and 101.2%
CYP1A2; CYP 1A2, 0.01 µM, Zero-Minute Preincubation, 0.01 µM
  Percent of Control Activity: 97.5%
CYP1A2; CYP 1A2, 0.158 µM, 30-Minute Preincubation, 0.158 µM
  Percent of Control Activity: 95.4% and 101.9%
CYP1A2; CYP 1A2, 0.158 µM, Zero-Minute Preincubation, 0.158 µM
  Percent of Control Activity: 97.0% and 100.9%
CYP1A2; CYP 1A2, 0.398 µM, 30-Minute Preincubation, 0.398 µM
  Percent of Control Activity: 101.4% and 101.2%
CYP1A2; CYP 1A2, 0.398 µM, Zero-Minute Preincubation, 0.398 µM
  Percent of Control Activity: 96.0% and 97.7%
CYP1A2; CYP 1A2, 1 µM, 30-Minute Preincubation, 1 µM
  Percent of Control Activity: 102.8% and 101.6%
CYP1A2; CYP 1A2, 1 µM, Zero-Minute Preincubation, 1 µM
  Percent of Control Activity: 94.7% and 96.1%
CYP1A2; CYP 1A2, 15.8 µM, 30-Minute Preincubation, 15.8 µM
  Percent of Control Activity: 103.2%
CYP1A2; CYP 1A2, 39.8 µM, 30-Minute Preincubation, 39.8 µM
  Percent of Control Activity: 101.7% and 102.7%
CYP1A2; CYP 1A2, 39.8 µM, Zero-Minute Preincubation, 39.8 µM
  Percent of Control Activity: 98.4% and 99.6%
CYP1A2; CYP 1A2, 100 µM, 30-Minute Preincubation, 100 µM
  Percent of Control Activity: 104.3% and 102.5%
CYP1A2; CYP 1A2, 100 µM, Zero-Minute Preincubation, 100 µM
  Percent of Control Activity: 94.4% and 97.1%
CYP1A2; Phenacetin O-dealkylation, 30-minute preincubation (T30)
  IC50: > 100 µM
CYP1A2; CYP 1A2, 0.01 µM, 30-Minute Preincubation
  activity at 0.01 µM: 96.7%
CYP1A2; CYP 1A2, 0.01 µM, Zero-Minute Preincubation
  activity at 0.01 µM: 100%
CYP1A2; CYP 1A2, 0.158 µM, 30-Minute Preincubation
  activity at 0.158 µM: 102%
CYP1A2; CYP 1A2, 0.158 µM, Zero-Minute Preincubation
  activity at 0.158 µM: 96.4%
CYP1A2; CYP 1A2, 0.398 µM, 30-Minute Preincubation
  activity at 0.398 µM: 102%
CYP1A2; CYP 1A2, 0.398 µM, Zero-Minute Preincubation
  activity at 0.398 µM: 98.5%
CYP1A2; CYP 1A2, 1 µM, 30-Minute Preincubation
  activity at 1 µM: 100%
CYP1A2; CYP 1A2, 1 µM, Zero-Minute Preincubation
  activity at 1 µM: 99.4%
CYP1A2; CYP 1A2, 15.8 µM, 30-Minute Preincubation
  activity at 15.8 µM: 102%
CYP1A2; CYP 1A2, 15.8 µM, Zero-Minute Preincubation
  activity at 15.8 µM: 100%
CYP1A2; CYP 1A2, 39.8 µM, 30-Minute Preincubation
  activity at 39.8 µM: 102%
CYP1A2; CYP 1A2, 39.8 µM, Zero-Minute Preincubation
  activity at 39.8 µM: 98.5%
CYP1A2; CYP 1A2, 100 µM, 30-Minute Preincubation
  activity at 100 µM: 103%
CYP1A2; CYP 1A2, 100 µM, Zero-Minute Preincubation
  activity at 100 µM: 97.8%
MDR1/P-gp; IC50, N-methyl quinidine (0.2 µM)
  IC50: > 300 µM
MDR1/P-gp; inhibitor concentration 0.0732 uM
  % PGP Uptake Activity: 123.862% and 96.8629% and 149.319%
MDR1/P-gp; inhibitor concentration 0.2930 uM
  % PGP Uptake Activity: 106.737% and 95.0116% and 107.663%
MDR1/P-gp; inhibitor concentration 1.1719 uM
  % PGP Uptake Activity: 108.588% and 115.068% and 109.514%
MDR1/P-gp; inhibitor concentration 4.6875 uM
  % PGP Uptake Activity: 120.159% and 118.308% and 119.234%
MDR1/P-gp; inhibitor concentration 18.7500 uM
  % PGP Uptake Activity: 122.011% and 113.68% and 118.308%
MDR1/P-gp; inhibitor concentration 300.0000 uM
  % PGP Uptake Activity: 73.875% and 64.7724% and 99.64%
